Assay results reported in patent US9499486B2, “Kinase inhibitor” (RESPIVERT LIMITED, priority 2014, dated 2016).
Where two headings read alike, the source gives them in different places.

Assays:
Syk [1] = molecular target: T1, Syk (Homo sapiens (Human), UniProt P43405); assay: KINOMEscan dissociation constant, Syk; assay type: binding
Excerpt: (§1) These assays may be conducted by DiscoverX (formerly Ambit; San Diego, Calif.).

[2] = molecular target: human ether a go-go (hERG) channel (Homo sapiens (Human), UniProt Q12809); assay: hERG inhibition, IonWorks patch clamp electrophysiology; assay type: cell-based; settings: IonWorks patch clamp
Experimental: (§2) The compound of the invention was tested for inhibition of the human ether a go-go (hERG) channel using IonWorks™ patch clamp electrophysiology at Essen Bioscience (Welwyn Garden City, England).

hERG = hERG (Homo sapiens (Human), UniProt Q12809); assay: as above; assay type: cell-based; settings: human; Top Concentration 3 μM
Experimental: as §2

LPS-stimulated rats = assay: Endotoxin-induced uveitis in rats; assay type: in vivo, rat; settings: mean ± SEM; for IL-1β Anterior tissue / IL-1β Posterior tissue: LPS-stimulated rats; for Cell counts: aqueous humor
Experimental: Male, Lewis rats (6-8 weeks old, Charles River UK Limited) are housed in cages of 3 at 19-21° C. with a 12 h light/dark cycle (07:00/19:00) and fed a standard diet of rodent chow and water ad libitum. Non-fasted rats are weighed, individually identified on the tail with a permanent marker, and receive a single intravitreal administration into the right vitreous humor (5 μL dose volume) of 100 ng/animal of LPS (Escherichia coli 0111:B4 prepared in PBS, Sigma Aldrich, UK) using a 32-gauge needle. Untreated rats are injected with PBS. Test compound or vehicle (4% polyoxyl 40 stearate, 4% mannitol in PBS (pH 7.4)) are administered by the topical route onto the right eye (10 μL) of animals 1 hour prior to LPS, at the time of LPS administration, and 1, 2 and 4 hours post LPS administration. Before administration, the solution to be administered is sonicated to ensure a clear solution. 6 hours after LPS dosing, animals are euthanized by overdose with pentobarbitone (via cardiac puncture). Immediately after euthanasia, 10 μL of aqueous humor is collected from the right eye of the rats by puncture of the anterior chamber using a 32 gauge needle under a surgical microscope. The aqueous humor is diluted in 20 μL of PBS and total cell counts are measured immediately using a Countess automated cell counter (Invitrogen). Following collection of the aqueous humour, the right eye of each animal is enucleated and dissected into front (anterior) and back (posterior) sections around the lens. Each section is weighed and homogenised in 500 μL of sterile phosphate buffered saline followed by 20 minutes centrifugation at 12000 rpm at 4° C. The resulting supernatant is divided into 3 aliquots and stored at −80° C. until subsequent cytokine analysis by R&D DuoSet ELISA.

Syk [3] = molecular target: T1, Syk; assay: Syk enzyme inhibition, Z-LYTE FRET; assay type: biochemical
Experimental: The enzyme inhibitory activities of the compound disclosed herein are determined by FRET using synthetic peptides labelled with both donor and acceptor fluorophores (Z-LYTE, Invitrogen Ltd., Paisley, UK).
(§3) The inhibitory activities of the compound of the invention against c-Src and Syk enzymes (Invitrogen), are evaluated in a similar fashion to that described hereinabove. The relevant enzyme (3000 ng/mL or 2000 ng/mL respectively, 2.5 μL) is incubated with the test compound (either 1 μg/mL, 0.1 μg/mL, 0.01 μg/mL, or 0.001 μg/mL, 2.5 μL each) for 2 hr at RT. The FRET peptides (8 μM, 2.5 μL), and appropriate ATP solutions (2.5 μL, 800 μM for c-Src, and 60 μM ATP for Syk) are then added to the enzymes/compound mixtures and the mixture incubated for 1 hr. Development reagent (protease, 5 μL) is added for 1 hr prior to detection in a fluorescence microplate reader (Varioskan® Flash, ThermoFisher Scientific).
(§4) In all cases, the site-specific protease cleaves non-phosphorylated peptide only and eliminates the FRET signal. Phosphorylation levels of each reaction are calculated using the ratio of coumarin emission (donor) over fluorescein emission (acceptor), for which high ratios indicate high phosphorylation and low ratios indicate low phosphorylation levels.

[4] = Systemic pharmacokinetics and total colon tissue distribution after single oral administration; assay type: in vivo, mouse; settings: mice, single oral administration
Experimental: Studies were conducted by Sai Life Sciences (Hinjewadi, Pune, India) to investigate the systemic pharmacokinetics and total colon tissue distribution of the compound of the invention. In particular, pharmacokinetic studies were carried out in male C57BL/6 mice following a single oral administration of the compound.

p38 MAPKα = p38 MAPKα (Homo sapiens (Human), UniProt Q16539); assay: KINOMEscan dissociation constant, p38 MAPKα; assay type: binding
Excerpt: as §1

[5] = Stability of pharmaceutical formulations (1 mg/mL solutions); assay type: physicochemical; settings: 5° C.
Experimental: The samples were sonicated to achieve clear solutions having the following properties: Osmolality (mOsm/kg): 310 (Na), 314 (HCl); pH: 7.00 (Na), 7.05 (HCl). 0.5 mL of the stock solutions were diluted to 1 mL with 20% DMSO in water & injected for purity analysis by HPLC. The remaining stock solutions were then split into aliquots of 0.5 mL in HPLC vials, and stored at various conditions in duplicate. Samples were stored at 5 and 25° C., before being analysed by HPLC at 1, 2 and 4 weeks. Separate samples were stored at 40° C. and analysed at 4 weeks.

c-Src = c-Src (Homo sapiens (Human), UniProt P12931); assay: c-Src enzyme inhibition, Z-LYTE FRET; assay type: biochemical
Experimental: as §3, with “The” for “The inhibitory activities of the compound of the invention against c-Src and Syk enzymes (Invitrogen), are evaluated in a similar fashion to that described hereinabove. The”
as §4

Lck = Lck (Homo sapiens (Human), UniProt P06239); assay: KINOMEscan dissociation constant, Lck; assay type: binding
Excerpt: as §1

B-Raf (V600E) = B-Raf (V600E) (Homo sapiens (Human), UniProt P15056, V600E); assay: KINOMEscan binding of B-Raf (V600E) to standard ligand
Excerpt: as §1

[6] = system: eyes of albino New Zealand White rabbits

Chain of B-Raf (V600E) (P15056 whole entry V600E): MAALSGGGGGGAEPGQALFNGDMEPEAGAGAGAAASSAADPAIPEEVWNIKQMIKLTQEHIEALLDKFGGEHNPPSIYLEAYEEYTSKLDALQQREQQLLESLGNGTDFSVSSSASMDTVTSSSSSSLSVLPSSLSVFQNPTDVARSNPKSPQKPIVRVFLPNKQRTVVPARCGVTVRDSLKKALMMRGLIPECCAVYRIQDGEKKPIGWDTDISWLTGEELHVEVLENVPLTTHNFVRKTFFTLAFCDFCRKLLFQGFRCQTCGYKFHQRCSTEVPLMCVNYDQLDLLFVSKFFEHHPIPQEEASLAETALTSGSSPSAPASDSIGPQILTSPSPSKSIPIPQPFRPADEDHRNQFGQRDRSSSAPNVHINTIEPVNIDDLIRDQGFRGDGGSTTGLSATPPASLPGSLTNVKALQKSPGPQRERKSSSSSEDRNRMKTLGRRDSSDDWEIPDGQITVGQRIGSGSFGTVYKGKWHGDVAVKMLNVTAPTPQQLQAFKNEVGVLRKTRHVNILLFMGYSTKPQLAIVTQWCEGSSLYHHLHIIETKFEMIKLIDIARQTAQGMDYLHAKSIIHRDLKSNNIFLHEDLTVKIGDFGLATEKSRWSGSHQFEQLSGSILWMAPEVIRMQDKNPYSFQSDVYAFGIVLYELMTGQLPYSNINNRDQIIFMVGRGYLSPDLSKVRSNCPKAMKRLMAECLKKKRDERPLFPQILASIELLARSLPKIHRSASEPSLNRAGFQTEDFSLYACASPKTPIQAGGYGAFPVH
Chain of Lck (P06239 whole entry): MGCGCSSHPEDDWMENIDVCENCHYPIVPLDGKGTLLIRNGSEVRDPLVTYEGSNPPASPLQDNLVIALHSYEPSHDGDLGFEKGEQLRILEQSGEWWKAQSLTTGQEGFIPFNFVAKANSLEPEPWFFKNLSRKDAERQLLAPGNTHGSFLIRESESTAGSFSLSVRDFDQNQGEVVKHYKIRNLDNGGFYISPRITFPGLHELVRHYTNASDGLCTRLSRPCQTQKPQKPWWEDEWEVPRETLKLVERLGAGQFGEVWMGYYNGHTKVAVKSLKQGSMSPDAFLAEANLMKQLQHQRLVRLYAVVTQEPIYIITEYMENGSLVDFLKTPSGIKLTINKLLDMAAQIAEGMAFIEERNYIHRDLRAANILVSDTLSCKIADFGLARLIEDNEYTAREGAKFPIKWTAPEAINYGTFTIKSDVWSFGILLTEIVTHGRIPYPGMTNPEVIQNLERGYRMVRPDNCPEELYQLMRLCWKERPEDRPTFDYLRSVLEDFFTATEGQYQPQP
Chain of human ether a go-go (hERG) channel (Q12809 whole entry): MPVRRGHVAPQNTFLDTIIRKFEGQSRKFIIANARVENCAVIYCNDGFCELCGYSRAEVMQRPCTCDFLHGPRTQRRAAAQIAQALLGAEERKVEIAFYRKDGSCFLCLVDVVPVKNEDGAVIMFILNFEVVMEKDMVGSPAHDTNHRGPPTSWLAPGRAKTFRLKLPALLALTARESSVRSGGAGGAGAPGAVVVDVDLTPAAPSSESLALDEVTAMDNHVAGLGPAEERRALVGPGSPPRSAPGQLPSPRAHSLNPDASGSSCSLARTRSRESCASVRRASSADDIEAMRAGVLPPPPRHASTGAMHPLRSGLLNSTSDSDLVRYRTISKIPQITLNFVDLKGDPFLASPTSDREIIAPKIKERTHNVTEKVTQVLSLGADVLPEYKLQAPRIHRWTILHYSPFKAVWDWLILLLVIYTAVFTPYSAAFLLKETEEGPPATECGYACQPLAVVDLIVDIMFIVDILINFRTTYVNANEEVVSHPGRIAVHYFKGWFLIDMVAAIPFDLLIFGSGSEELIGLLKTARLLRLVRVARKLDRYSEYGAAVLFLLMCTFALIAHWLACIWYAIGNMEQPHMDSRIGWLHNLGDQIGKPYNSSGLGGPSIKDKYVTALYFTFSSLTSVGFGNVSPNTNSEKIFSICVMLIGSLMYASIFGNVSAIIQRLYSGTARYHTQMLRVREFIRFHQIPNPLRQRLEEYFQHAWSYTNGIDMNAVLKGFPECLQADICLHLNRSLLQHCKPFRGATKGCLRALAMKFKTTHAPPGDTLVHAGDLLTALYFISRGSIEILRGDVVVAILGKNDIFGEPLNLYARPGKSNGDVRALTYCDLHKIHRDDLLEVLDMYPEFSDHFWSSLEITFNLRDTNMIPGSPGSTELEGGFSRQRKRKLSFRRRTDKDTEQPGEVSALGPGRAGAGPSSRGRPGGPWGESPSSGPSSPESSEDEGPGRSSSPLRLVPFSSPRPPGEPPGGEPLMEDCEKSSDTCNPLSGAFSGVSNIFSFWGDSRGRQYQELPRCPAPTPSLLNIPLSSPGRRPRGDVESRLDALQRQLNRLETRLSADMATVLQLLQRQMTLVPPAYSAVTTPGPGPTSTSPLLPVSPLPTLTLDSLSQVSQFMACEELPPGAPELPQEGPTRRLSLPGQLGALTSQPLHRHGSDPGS
Chain of hERG (Q12809 whole entry): as above
Chain of c-Src (P12931 whole entry, looked up): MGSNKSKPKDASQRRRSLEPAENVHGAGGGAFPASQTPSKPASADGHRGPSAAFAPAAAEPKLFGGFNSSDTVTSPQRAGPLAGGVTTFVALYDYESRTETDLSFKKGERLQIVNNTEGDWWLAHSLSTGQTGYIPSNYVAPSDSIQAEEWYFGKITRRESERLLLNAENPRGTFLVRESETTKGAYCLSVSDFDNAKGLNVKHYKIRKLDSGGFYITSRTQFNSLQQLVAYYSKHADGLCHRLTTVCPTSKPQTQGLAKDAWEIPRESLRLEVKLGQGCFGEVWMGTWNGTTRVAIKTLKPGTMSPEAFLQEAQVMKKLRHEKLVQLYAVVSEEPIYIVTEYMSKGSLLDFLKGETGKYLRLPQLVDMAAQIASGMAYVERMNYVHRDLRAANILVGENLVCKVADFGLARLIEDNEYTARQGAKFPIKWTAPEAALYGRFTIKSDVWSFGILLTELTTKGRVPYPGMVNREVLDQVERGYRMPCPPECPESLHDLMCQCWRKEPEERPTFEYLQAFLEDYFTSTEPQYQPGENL
Chain of p38 MAPKα (Q16539 whole entry, looked up): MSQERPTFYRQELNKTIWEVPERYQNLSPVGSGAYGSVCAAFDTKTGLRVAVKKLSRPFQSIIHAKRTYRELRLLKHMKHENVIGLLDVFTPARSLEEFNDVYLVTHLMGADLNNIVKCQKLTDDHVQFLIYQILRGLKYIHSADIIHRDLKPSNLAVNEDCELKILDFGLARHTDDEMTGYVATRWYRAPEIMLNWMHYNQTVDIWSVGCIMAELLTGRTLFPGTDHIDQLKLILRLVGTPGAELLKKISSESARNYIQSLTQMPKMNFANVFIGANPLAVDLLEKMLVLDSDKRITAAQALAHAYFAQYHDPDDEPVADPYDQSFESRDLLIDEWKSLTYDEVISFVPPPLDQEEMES

Compound: COc1cc(Nc2cc(Oc3ccc(NC(=O)Nc4cc(C(C)(C)C)cc(NS(C)(=O)=O)c4OC)c4ccccc34)ccn2)ccc1C(=O)O [Example 1, 4-((4-((4-(3-(5-(tert-Butyl)-2-methoxy-3-(methylsulfonamido)phenyl)ureido)naphthalen-1-yl)oxy)pyridin-2-yl)amino)-2-methoxybenzoic acid]
- Kd (Syk [1]): 7.1 nM
- IC50 [2]: > 3300 nM
- inhibition at 3 µM (hERG): -4%
- IL-1β Anterior tissue (LPS-stimulated rats; 0.001 mg/mL topical): 1558.1 ± 145.7 pg/mL
- IL-1β Posterior tissue (LPS-stimulated rats; 0.001 mg/mL topical): 867.9 ± 120.8 pg/mL
- Cell counts (LPS-stimulated rats; 0.001 mg/mL topical): 63.6 ± 7.0 ×10^5/mL
- IL-1β Anterior tissue (LPS-stimulated rats; 0.01 mg/mL topical): 980.0 ± 110.8 pg/mL
- IL-1β Posterior tissue (LPS-stimulated rats; 0.01 mg/mL topical): 740.5 ± 56.2 pg/mL
- Cell counts (LPS-stimulated rats; 0.01 mg/mL topical): 43.5 ± 6.3 ×10^5/mL
- IL-1β Anterior tissue (LPS-stimulated rats; 0.1 mg/mL topical): 791.2 ± 131.9 pg/mL
- IL-1β Posterior tissue (LPS-stimulated rats; 0.1 mg/mL topical): 327.4 ± 61.4 pg/mL
- Cell counts (LPS-stimulated rats; 0.1 mg/mL topical): 30.4 ± 6.7 ×10^5/mL
- IL-1β Anterior tissue (LPS-stimulated rats; 1 mg/mL topical): 367.3 ± 100.4 pg/mL
- IL-1β Posterior tissue (LPS-stimulated rats; 1 mg/mL topical): 188.1 ± 54.7 pg/mL
- Cell counts (LPS-stimulated rats; 1 mg/mL topical): 21.9 ± 5.0 ×10^5/mL
- IC50 (Syk [3]): 5 nM
- systemic plasma or blood exposures [4]: very low or negligible
- Kd (p38 MAPKα): 2.8 nM
- stability in solution [5]: stable
- IC50 (c-Src): 14 nM
- Kd (Lck): 4.2 nM
- effect on the binding of B-Raf (V600E) to its standard ligand (B-Raf (V600E)): did not have any significant effect
- ocular reactions compared with vehicle controls ([6]; Phase 1, one treatment day, 0.1 and 1.0 mg/mL): no differences in the frequency, severity and incidence
- local tolerability of the formulations ([6]; Phase 1, single dosing day, 0.1 and 1.0 mg/mL): acceptable
- local tolerability of the formulations ([6]; Phase 2, three consecutive treatment days, 0.1 and 1.0 mg/mL): acceptable without any aggravation
- effects on body weight and food consumption ([6]; rabbits, ocular 0.1 and 1.0 mg/mL, four daily instillations): no effects on body weight, nor on food consumption
